Results published in paper PMC7839693 (Chemistry (Weinheim an Der Bergstrasse, Germany), 2020).

Columns and labels:
[1] = tested on: M21 human melanoma cells; test: In vitro cytotoxicity assay; format: cell-based; settings: incubated alone (no β-glucuronidase)
[2] = target: E. coli β‐glucuronidase (Escherichia coli, UniProt P05804); test: β-glucuronidase cleavage assay / drug release; format: in vitro ADME
[3] = target: human integrin αvβ3 (Homo sapiens, UniProt P05106+P06756, DEL719-788); test: Solid-phase receptor binding assay
[4] = cited from earlier work
[5] = cited from earlier work; remark: listed apart in the source
[6] = Pilot experiment: stability of Cry-55gly under alkaline conditions; format: physicochemical; settings: LiOH/H2O, 0 °C, 30 minutes, HPLC-MS

Structure (SMILES)	decreased activity relative to the free drug 3 [1]	release of Cry-55gly after β-glucuronidase cleavage ([2]; E. coli β-glucuronidase 200 U mL-1, 37 °C, 60 min, HPLC and UPLC-MS)	stability in the absence of enzyme (control) ([2]; control experiments without β-glucuronidase, buffer, 37 °C, HPLC)	IC50 [3]	stability in human plasma [4]	stability in mouse plasma [5]	conversion into the epoxide (cryptophycin-52, 4) [6]
COc1ccc(C[C@H]2NC(=O)/C=C/C[C@@H]([C@H](C)[C@@H](OC(=O)CNC(=O)OCc3cc(NC(=O)CCCc4cn(CCC(=O)NCCCC[C@@H]5NC(=O)[C@@H](Cc6ccccc6)NC(=O)[C@H](CC(=O)O)NC(=O)CNC(=O)[C@H](CCCNC(=N)N)NC5=O)nn4)cc(O[C@@H]4O[C@H](C(=O)O)[C@@H](O)[C@H](O)[C@H]4O)c3)[C@@H](Cl)c3ccccc3)OC(=O)[C@H](CC(C)C)OC(=O)C(C)(C)CNC2=O)cc1Cl [compound 2, c(RGDfK)‐(m)‐GlcA‐linker‐Cry‐55gly]	70 fold	not released over time	stable	0.0117 µM			
COc1ccc(C[C@H]2NC(=O)/C=C/C[C@@H]([C@H](C)[C@@H](OC(=O)CN)[C@@H](Cl)c3ccccc3)OC(=O)[C@H](CC(C)C)OC(=O)C(C)(C)CNC2=O)cc1Cl [compound 3, cryptophycin‐55 glycinate]					excellent stability	excellent stability	70%
